Reference: patent US20140088034A1, “NITRIC OXIDE/cGMP PATHWAY INHIBITION OF VLA-4 RELATED CELL ADHESION” (STC.UNM, priority 2011, published 2014)
Residues, ends and D or L forms follow the SMILES beside them.

Columns and labels:
[1] = test system: VLA-4/VCAM-1 dependent cell adhesion; experiment: Real-time cell aggregation between U937 FPR (ΔST) and VCAM-1-transfected B78H1 cells; format: cell-based, human; details: U937 FPR ΔST + B78H1/VCAM-1; fMLFF 100 nM; DEA-NONOate 250 μM; LDV block 2 μM 6 min after mixing
Description: Real-time aggregation experiments were conducted as described under “Methods”, infra. U937/AST FPR stably transfected cells, which constitutively express VLA-4, were labeled with red fluorescent dye, and B78H1/VCAM-1 transfectants were stained with green fluorescent dye. […] Next, cells were mixed and real-time cell aggregation (red and green double positive events) was followed. To determine the level of VLA-4 dependent cell aggregation, 6 min after cell mixing, excess unlabelled VLA-4 specific ligand was added (arrow, LDV block, 2 μM).
Prior to the experiment, individual cell populations were stained with either of two fluorescent dyes (red and green). Next, the cell populations were mixed, and the appearance of double positive events, representing cellular aggregates, was followed in real-time by flow cytometry (see FIG. 1, 2, 3 in [55] for method details).
The cell suspension adhesion assay has been described previously. Briefly, U937/AST FPR stably transfected cells were labeled with red fluorescent PKH26GL dye, and B78H1/VCAM-1 transfectants were stained with green fluorescent PKH67GL dye (Sigma-Aldrich). Labeled cells were washed, resuspended in HEPES buffer supplemented with 0.1% HSA and stored on ice until used in assays. Control U937 cells were preincubated with the 1 μM LDV-containing small molecule for blocking adhesion. Prior to data acquisition, cells were warmed to 37° C. for 10 min separately and then mixed. During data acquisition, the samples were stirred with a 5×2-mm magnetic stir bar (Bel-Art Products, Pequannock, N.J.) at 300 rpm and kept at 37° C. For stimulation, cells were treated with appropriate GPCR ligands at saturating concentration (10 times or higher than Kd). In several experiments cells were treated sequentially with two different compounds. […] The percentage of aggregates was calculated as follows: % U937 cells in aggregates=number of aggregates/(number of aggregates+number of U937 singlets))×100. […]

[2] = test system: VLA-4; experiment: Real-time flow cytometric binding of LDV-FITC probe (VLA-4 affinity change) on GPCR-transfected U937 cells; format: cell-based, human; details: for effect on magnitude of LDV-FITC binding response, compound added prior to IL-8 activation: U937 CXCR2/IL-8RB; for effect on magnitude of LDV-FITC binding response, compound added prior to IL-8 activation / effect on magnitude of LDV-FITC binding response, compound added prior to SDF-1 activation: added at 0 time point, BAY 41-2272 100 μM; for effect on magnitude of LDV-FITC binding response, compound added prior to SDF-1 activation: U937 CXCR4; for reversibility of the decrease in LDV-FITC binding / effect on LDV-FITC binding, compound added after fMLFF activation: U937 non-desensitizing FPR mutant (ΔST), LDV-FITC 4 nM, fMLFF 100 nM; for effect on LDV-FITC binding, compound added after fMLFF activation: different concentrations
Description: Experiments were conducted as described under “Methods”, infra. A, LDV-FITC probe binding and dissociation on U937 cells stably transfected with the non-desensitizing mutant of FPR (ΔST) receptor plotted as mean channel fluorescence (MCF) versus time.
The experiment involved sequential addition of fluorescent LDV-FITC probe (4 nM, below saturation, added 2 min prior to addition of Gαi-coupled receptor ligand, fMLFF, 100 nM), and different concentrations of DEA-NONOate (nitric oxide donor) (arrows). Control cells were treated with vehicle. The MCF value corresponding to cell autofluorescence is indicated by the horizontal arrow. […] Curves are means of two independent determinations calculated on a point-by-point basis (n=2). B, LDV-FITC probe binding and dissociation on U937 cells stably transfected with wild type CXCR4 receptor plotted as mean channel fluorescence (MCF) versus time.
The experiment involved sequential addition of fluorescent LDV-FITC probe (4 nM), CXCL12/SDF-1 (12 nM), and DEA-NONOate (250 μM, nitric oxide donor) or vehicle (control) (arrows). Rapid and reversible binding of the probe reflects the VLA-4 affinity change. Curves are means of two independent determinations calculated on a point-by-point basis (n=2). SEM of mean, calculated on a point by point basis, indicated using error bars to show significance of the difference between treatment and control samples. C, LDV-FITC probe binding and dissociation on U937 cells stably transfected with wild type CXCR2/IL-8RB receptor plotted as mean channel fluorescence (MCF) versus time.
The experiment involved sequential addition of the fluorescent LDV-FITC probe (4 nM), CXCL8/IL-8 (20 nM), and DEA-NONOate (250 μM, nitric oxide donor) or vehicle (control) (arrows). This experiment is analogous to the one shown in panel B. One representative experiment of three experiments is shown. Curves are means of two independent determinations calculated on a point-by-point basis (n=2). D, LDV-FITC probe binding and dissociation on U937 cells stably transfected with wild type CXCR4 receptor plotted as mean channel fluorescence (MCF) versus time.
The experiment involved sequential addition of the DEA-NONOate (250 μM, nitric oxide donor) or vehicle (control) at the 0 time point, and the fluorescent LDV-FITC probe (4 nM), CXCL12/SDF-1 (12 nM) (arrows). Rapid and reversible binding of the probe reflects the VLA-4 affinity change. Excess unlabelled competitor LDV (1 μM) is added at the end of the experiment to determine the non-specific binding of the probe. Curves are means of two independent determinations calculated on a point-by-point basis (n=2). SEM, calculated on a point by point basis, is indicated using error bars to show the significance of the difference between treatment and control samples. E, LDV-FITC probe binding and dissociation on U937 cells stably transfected with wild type CXCR2/IL-8RB receptor plotted as mean channel fluorescence (MCF) versus time.
The experiment involved sequential addition of DEA-NONOate (250 μM, nitric oxide donor) or vehicle (control) at the 0 time point, and the fluorescent LDV-FITC probe (4 nM), CXCL8/IL-8 (20 nM) (arrows). Excess unlabelled competitor LDV (1 μM) added at the end of the experiment to determine the non-specific binding of the probe. This experiment is analogous to the one shown in panel D. One representative experiment of three experiments is shown. Curves are means of two independent determinations calculated on a point-by-point basis (n=2). […] Experiments shown in the different panels were performed using different instruments, and therefore MCF values are not identical. […]
LDV-FITC probe binding and dissociation on U937 cells stably transfected with the non-desensitizing mutant of FPR plotted as mean channel fluorescence (MCF) versus time. […]

[3] = target: VLA-4 (Homo sapiens, UniProt P05556+P13612); experiment: Kinetic dissociation rate (koff) analysis of LDV-FITC probe on U937 cells with non-desensitizing FPR mutant; format: cell-based; details: U-937; U937 FPR ΔST; fMLFF 100 nM then BAY 41-2272 50 μM; LDV-FITC 25 nM, LDV block 2 μM; read-out: dissociation rate constant koff of LDV-FITC after fMLFF and BAY 41-2272
Description: The experiment involved sequential addition of BAY 41-2272 (100 μM, guanylyl cyclase activator) or vehicle (control) at the 0 time point, and the fluorescent LDV-FITC probe (4 nM), and CXCL8/IL-8 (20 nM) (arrows). Excess unlabelled competitor LDV (1 μM) added at the end of the experiment to determine the non-specific binding of the probe. This experiment is analogous to the one shown in panel B. One representative experiment of two experiments is shown. Curves are means of two independent determinations calculated on a point-by-point basis (n=2). […] D, Kinetic analysis of binding and dissociation of LDV-FITC probe on U937 cells stably transfected with the non-desensitizing mutant of FPR. Cells were sequentially treated with the LDV-FITC probe (25 nM, near saturation), the Gαi-coupled receptor ligand (fMLFF, 100 nM), BAY 41-2272 (guanylyl cyclase activator, 50 μM) (arrows). At time points indicated by arrows, cells were treated with excess unlabeled LDV containing small molecule (2 μM), and the dissociation of the fluorescent molecule was followed. Dissociation rate constants (koff) were obtained by fitting dissociation curves to a single exponential decay equation (as described in the text). Experiments shown in the different panels were performed using different instruments, and therefore MCF values are not identical. E, Dissociation rate values, obtained in experiments analogous to panel B, summarized as a bar graph showing mean and SEM (n=4). Colors of the dissociation curves in panel D and bars on panel E are matching. The difference between koffs for “resting” and “fMLFF activated”, and between “fMLFF activated” and “fMLFF activated and treated with BAY 41-2272” is statistically significant (P=0.0006<0.05) as calculated by one-way analysis of variance (ANOVA) using GraphPad Prism software. […]
Next, the regions of the ligand-binding curves corresponding to the dissociation of the LDV-FITC probe were fitted to a single exponential decay equation. […] The affinity state induced by guanylyl cyclase activator was quantitatively similar to the resting state before activation. […]

[4] = DEA-NONOate 250 μM, CXCL8/IL-8 20 nM
[5] = DEA-NONOate 250 μM, CXCL12/SDF-1 12 nM

VLA-4 (Homo sapiens, UniProt P05556+P13612), sequence (P13612 34-1032): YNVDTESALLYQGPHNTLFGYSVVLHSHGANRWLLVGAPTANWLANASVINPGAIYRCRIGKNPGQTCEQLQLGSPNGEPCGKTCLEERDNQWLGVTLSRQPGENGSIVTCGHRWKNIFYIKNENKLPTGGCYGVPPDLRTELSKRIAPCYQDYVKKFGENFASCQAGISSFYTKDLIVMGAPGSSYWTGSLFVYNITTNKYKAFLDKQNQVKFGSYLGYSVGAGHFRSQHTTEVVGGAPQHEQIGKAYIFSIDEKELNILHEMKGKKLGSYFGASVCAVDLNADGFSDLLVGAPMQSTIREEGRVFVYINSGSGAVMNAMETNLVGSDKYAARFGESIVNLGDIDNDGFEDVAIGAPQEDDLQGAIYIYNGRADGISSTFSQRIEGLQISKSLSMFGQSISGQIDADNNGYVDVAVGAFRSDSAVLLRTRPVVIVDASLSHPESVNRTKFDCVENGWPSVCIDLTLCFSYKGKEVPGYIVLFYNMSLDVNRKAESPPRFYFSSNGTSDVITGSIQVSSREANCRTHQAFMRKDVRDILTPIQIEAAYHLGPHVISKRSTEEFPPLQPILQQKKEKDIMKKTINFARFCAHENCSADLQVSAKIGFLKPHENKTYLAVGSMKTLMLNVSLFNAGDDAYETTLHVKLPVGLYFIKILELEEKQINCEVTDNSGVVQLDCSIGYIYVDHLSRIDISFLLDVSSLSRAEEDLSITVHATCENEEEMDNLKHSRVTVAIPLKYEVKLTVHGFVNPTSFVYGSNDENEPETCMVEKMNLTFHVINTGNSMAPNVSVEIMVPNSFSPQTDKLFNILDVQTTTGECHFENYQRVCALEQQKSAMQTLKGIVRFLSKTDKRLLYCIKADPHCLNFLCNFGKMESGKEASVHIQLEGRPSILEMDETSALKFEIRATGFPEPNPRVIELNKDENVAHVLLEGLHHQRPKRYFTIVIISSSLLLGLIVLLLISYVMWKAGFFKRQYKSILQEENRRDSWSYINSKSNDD
VLA-4 (Homo sapiens, UniProt P05556+P13612), sequence (P05556 21-798): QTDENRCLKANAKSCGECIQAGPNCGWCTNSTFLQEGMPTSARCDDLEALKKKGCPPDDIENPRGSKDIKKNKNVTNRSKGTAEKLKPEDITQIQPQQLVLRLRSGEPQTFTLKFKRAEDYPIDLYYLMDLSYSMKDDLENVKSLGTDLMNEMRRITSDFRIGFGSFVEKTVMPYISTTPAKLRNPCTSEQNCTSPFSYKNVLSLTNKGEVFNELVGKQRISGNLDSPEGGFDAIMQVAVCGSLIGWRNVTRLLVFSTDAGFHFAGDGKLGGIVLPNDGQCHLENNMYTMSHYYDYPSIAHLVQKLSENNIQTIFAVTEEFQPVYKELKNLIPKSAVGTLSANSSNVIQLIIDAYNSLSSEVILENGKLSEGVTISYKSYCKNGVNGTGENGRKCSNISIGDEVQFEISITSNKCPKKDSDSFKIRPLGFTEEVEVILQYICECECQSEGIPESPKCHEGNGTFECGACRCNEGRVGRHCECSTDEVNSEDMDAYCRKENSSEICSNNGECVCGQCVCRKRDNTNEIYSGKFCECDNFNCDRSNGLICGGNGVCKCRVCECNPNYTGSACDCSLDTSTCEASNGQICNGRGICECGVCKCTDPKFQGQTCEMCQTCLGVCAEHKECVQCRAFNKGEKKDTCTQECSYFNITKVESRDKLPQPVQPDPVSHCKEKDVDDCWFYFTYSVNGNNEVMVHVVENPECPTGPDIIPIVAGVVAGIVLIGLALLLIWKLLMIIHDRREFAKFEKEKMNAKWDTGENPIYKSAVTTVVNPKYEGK

Row | SMILES | effect on VLA-4/VCAM-1 dependent cell aggregation (% U937 cells in aggregates) [1] | effect on magnitude of LDV-FITC binding response, compound added prior to IL-8 activation [2, 4] | effect on magnitude of LDV-FITC binding response, compound added prior to SDF-1 activation [2, 5] | reversibility of the decrease in LDV-FITC binding [2] | effect on LDV-FITC binding, compound added after fMLFF activation [2] | effect on LDV-FITC binding, compound added after CXCL8/IL-8 activation ([2]; U937 wild type CXCR2/IL-8RB, CXCL8/IL-8 20 nM, DEA-NONOate 250 μM) | effect on LDV-FITC binding, compound added after CXCL12/SDF-1 activation ([2]; U937 wild type CXCR4, CXCL12/SDF-1 12 nM, DEA-NONOate 250 μM) | koff [3] [s⁻¹]
1 | Cc1ccccc1NC(=O)Nc1ccc(CC(=O)N[C@@H](CC(C)C)C(=O)N[C@@H](CC(=O)O)C(=O)N[C@H](C(=O)N2CCC[C@H]2C(=O)N[C@@H](C)C(=O)N[C@@H](C)C(=O)N[C@@H](CCCCN)C(=O)O)C(C)C)cc1 [LDV, 4-((N′-2-methylphenyl)ureido)-phenylacetyl-L-leucyl-L-aspartyl-L-valyl-L-prolyl-L-alanyl-L-alanyl-L-lysine] | rapid cellular disaggregation |  |  |  |  |  |  | 
2 | CCN(CC)/[N+]([O-])=N/O [DEA-NONOate] | abolished fMLFF-dependent cellular aggregation | significant decrease in the magnitude of the response | significant decrease in the magnitude of the response | not reversible | rapid and dose-dependent decrease in the binding of the VLA-4 specific ligand | faster and more pronounced signal decrease | faster and more pronounced signal decrease | 
3 | CCCC(=O)Nc1nc2c(ncn2C2OC3COP(=O)([O-])OC3C2OC(=O)CCC)c(=O)[nH]1.[Na+] (stereo not shown) [dbcGMP, N^2,2′-O-Dibutyrylguanosine 3′,5′-cyclic monophosphate] |  |  |  | reversible | dose-dependent decrease in the binding of the probe |  |  | 
4 | CSCC[C@H](NC=O)C(=O)N[C@@H](CC(C)C)C(=O)N[C@@H](Cc1ccccc1)C(=O)N[C@@H](Cc1ccccc1)C(=O)O [fMLFF, N-formyl-L-methionyl-L-leucyl-L-phenylalanyl-L-phenylalanine] (HELM PEPTIDE1{[O=C[*:2]].M.L.F.F}$$$$V2.0) | rapid increase in cell aggregation |  |  |  |  |  |  | 
5 | Nc1nc(-c2nn(Cc3ccccc3F)c3ncccc23)ncc1C1CC1 [BAY 41-2272, 3-(4-Amino-5-cyclopropylpyrimidin-2-yl)-1-(2-fluorobenzyl)-1H-pyrazolo[3,4-b]pyridine] |  | decrease in the magnitude of the response | decrease in the magnitude of the response | partially reversible | significant decrease in LDV-FITC binding |  |  | ~0.036
